Row | SMILES | melting point [°C]
1 | NS(=O)(=O)c1c(F)c(F)c(SCc2ccc(C(=O)O)cc2)c(F)c1NC1CCCCCCCCCCC1 [MZ21-10, 4-[[3-(Cyclododecylamino)-2,5,6-trifluoro-4-sulfamoyl-phenyl]sulfanylmethyl]benzoic acid] | 190 to 191
2 | CCC(C)C(C)CCNc1c(F)c(SCc2ccc(C(=O)O)cc2)c(F)c(F)c1S(N)(=O)=O (stereo not drawn) [MZ21-40, 4-[[3-(3,4-Dimethylhexylamino)-2,5,6-trifluoro-4-sulfamoyl-phenyl]sulfanylmethyl]benzoic acid] | 133
3 | CCCCCCCNc1c(F)c(SCCc2ccc(C(=O)O)cc2)c(F)c(F)c1S(N)(=O)=O [MZ21-11, 4-[2-[2,3,6-Trifluoro-5-(heptylamino)-4-sulfamoyl-phenyl]sulfanylethyl]benzoic acid] | 66 to 68
4 | NS(=O)(=O)c1c(F)c(F)c(Sc2ccc(CC(=O)O)cc2)c(F)c1NC1CCCCCCCCCCC1 [MZ21-18, 2-[4-(3-(Cyclododecylamino)-2,5,6-trifluoro-4-sulfamoylphenyl)sulfanylphenyl]acetic acid] | 148 to 150
5 | NS(=O)(=O)c1c(F)c(F)c(Sc2ccc(C(=O)O)cc2)c(F)c1NC1CCCCCCCCCCC1 [MZ21-02, 4-[3-(Cyclododecylamino)-2,5,6-trifluoro-4-sulfamoyl-phenyl]sulfanylbenzoic acid] | 186 to 188
6 | NS(=O)(=O)c1c(F)c(F)c(SCc2ccc(C(=O)O)cc2)c(F)c1NC1CCCCCCCCC1 [MZ21-25, 4-[[3-(Cyclodecylamino)-2,5,6-trifluoro-4-sulfamoyl-phenyl]sulfanylmethyl]benzoic acid] | 176
7 | NS(=O)(=O)c1c(F)c(F)c(Sc2ccccc2C(=O)O)c(F)c1NC1CCCCCCCCCCC1 [MZ22-10, 2-[3-(Cyclododecylamino)-2,5,6-trifluoro-4-sulfamoyl-phenyl]sulfanylbenzoic acid] | 85
8 | NS(=O)(=O)c1c(F)c(F)c(SCc2ccc(C(=O)O)cc2)c(F)c1NCC1CCCCCCC1 [MZ21-23, 4-[[3-(Cyclooctylmethylamino)-2,5,6-trifluoro-4-sulfamoyl-phenyl]sulfanylmethyl]benzoic acid] | 157 to 158
9 | NS(=O)(=O)c1c(F)c(F)c(SCc2cccc(C(=O)O)c2)c(F)c1NC1CCCCCCCCCCC1 [MZ21-26, 3-[[3-(Cyclododecylamino)-2,5,6-trifluoro-4-sulfamoyl-phenyl]sulfanylmethyl]benzoic acid] | 109 to 111
10 | CCCC(CCC)CCNc1c(F)c(SCc2ccc(C(=O)O)cc2)c(F)c(F)c1S(N)(=O)=O [MZ21-35, 4-[[2,3,6-Trifluoro-5-(3-propylhexylamino)-4-sulfamoyl-phenyl]sulfanylmethyl]benzoic acid] | 149
11 | CCCCCCCCNc1c(F)c(SCCc2ccc(C(=O)O)cc2)c(F)c(F)c1S(N)(=O)=O [MZ20-07, 4-[2-[2,3,6-Trifluoro-5-(octylamino)-4-sulfamoyl-phenyl]sulfanylethyl]benzoic acid] | 69 to 71
12 | NS(=O)(=O)c1c(F)c(F)c(SCCc2ccc(C(=O)O)cc2)c(F)c1NC1CCCCCCC1 [VR16-10, 4-[2-[3-(Cyclooctylamino)-2,5,6-trifluoro-4-sulfamoyl-phenyl]sulfanylethyl]benzoic acid] | 166 to 168
13 | NS(=O)(=O)c1c(F)c(F)c(Sc2cccc(C(=O)O)c2)c(F)c1NC1CCCCCCCCCCC1 [MZ22-07, 3-[3-(Cyclododecylamino)-2,5,6-trifluoro-4-sulfamoyl-phenyl]sulfanylbenzoic acid] | 123 to 125
14 | CCCCCCCCCNc1c(F)c(SCCc2ccc(C(=O)O)cc2)c(F)c(F)c1S(N)(=O)=O [MZ21-12, 4-[2-[2,3,6-Trifluoro-5-(nonylamino)-4-sulfamoyl-phenyl]sulfanylethyl]benzoic acid] | 66 to 67
15 | CCCCCCNc1c(F)c(SCCc2ccc(C(=O)O)cc2)c(F)c(F)c1S(N)(=O)=O [MZ21-06, 4-[2-[2,3,6-Trifluoro-5-(hexylamino)-4-sulfamoyl-phenyl]sulfanylethyl]benzoic acid] | 110 to 112
